Data: patent US20250345392A1, “ANNEXIN A1 LIQUID PHARMACEUTICAL COMPOSITION” (ResoTher Pharma A/S, priority 2022, published 2025)
Where two headings read alike, the source gives them in different places. Ends that are not written are not given here.

Test: 14-day repeat dose IV toxicity study with toxicokinetic evaluation on Day 1 and Day 14 in rats
Format: in vivo, Wistar rats
Conditions: rat; for C0 / AUC(0-inf) / half-life / clearance / Vd: in vivo
Description: Peptide 1 in blood samples collected from animals used in the studies (rat and dog) has been measured by an LC-MS/MS method. Analysis of samples collected in the pharmacokinetic study in rats was performed prior to validation of the method. Prior to analysis of samples from the GLP toxicology studies, the method was validated according to GLP to ensure that it is selective, accurate, reproducible, and able to produce reliable results. The method was validated over the range from 0.075 to 25 μg/mL Peptide 1.
In the 14-day intravenous toxicity study in Wistar rats (see study description below), samples were collected from 3 male and 3 female animals per group dosed at 0 (Control), 1, 3 or 10 mg/kg/day at 2, 5, 10, 20 and 40 minutes after dosing on Days 1 and 14. Samples were analysed for levels of Peptide 1.

[1] = iv, 1 mg/kg/day, IV 1.0 mg/kg/day, female, Day 1
[2] = iv, 1 mg/kg/day, IV 1.0 mg/kg/day, female, Day 14
[3] = iv, 1 mg/kg/day, IV 1.0 mg/kg/day, male, Day 1
[4] = iv, 1 mg/kg/day, IV 1.0 mg/kg/day, male, Day 14
[5] = iv, 3 mg/kg/day, IV 3.0 mg/kg/day, female, Day 1
[6] = iv, 3 mg/kg/day, IV 3.0 mg/kg/day, female, Day 14
[7] = iv, 3 mg/kg/day, IV 3.0 mg/kg/day, male, Day 1
[8] = iv, 3 mg/kg/day, IV 3.0 mg/kg/day, male, Day 14
[9] = iv, 10 mg/kg/day, IV 10 mg/kg/day, female, Day 1

AMVSEFLKQAWFIENEEQEYVQTLKSSKGGPGSAVSPYPTFNPSSDV-NH2 [Peptide 1]
exposure (C(0) and AUCinf) versus dose (from 1 mg/kg to 10 mg/kg): increase proportional to dose level
C0 (1 mg/kg, Group 2 (1 mg/kg), range over sexes and Days 1 and 14): 9.96 to 11.9 µg/mL
AUC(0-inf) (1 mg/kg, Group 2 (1 mg/kg), range over sexes and Days 1 and 14, read-out: AUCinf): 0.918 to 1.03 µg·h/mL
C0 (3 mg/kg, Group 3 (3 mg/kg), range over sexes and Days 1 and 14): 23 to 41.9 µg/mL
AUC(0-inf) (3 mg/kg, Group 3 (3 mg/kg), range over sexes and Days 1 and 14, read-out: AUCinf): 2.28 to 3.38 µg·h/mL
C0 (10 mg/kg, Group 4 (10 mg/kg), range over sexes and Days 1 and 14): 92.3 to 138 µg/mL
AUC(0-inf) (10 mg/kg, Group 4 (10 mg/kg), range over sexes and Days 1 and 14, read-out: AUCinf): 9.13 to 10.1 µg·h/mL
half-life (all groups, read-out: elimination half-life): 7 to 8 min
C0 [1]: 11.9 µg/mL
clearance [1]: 1.09 L/h/kg
AUC(0-inf) (iv, 1 mg/kg/day, IV 1.0 mg/kg/day, female, Day 1, read-out: AUC0-∞ (converted)): 0.918 µg·h/mL
half-life (iv, 1 mg/kg/day, IV 1.0 mg/kg/day, female, Day 1, read-out: T1/2): 7.33 min
Vd (iv, 1 mg/kg/day, IV 1.0 mg/kg/day, female, Day 1, read-out: Vz): 0.192 L/kg
C0 [2]: 10.9 µg/mL
clearance [2]: 0.972 L/h/kg
AUC(0-inf) (iv, 1 mg/kg/day, IV 1.0 mg/kg/day, female, Day 14, read-out: AUC0-∞ (converted)): 1.03 µg·h/mL
half-life (iv, 1 mg/kg/day, IV 1.0 mg/kg/day, female, Day 14, read-out: T1/2): 7.11 min
Vd (iv, 1 mg/kg/day, IV 1.0 mg/kg/day, female, Day 14, read-out: Vz): 0.167 L/kg
C0 [3]: 9.96 µg/mL
clearance [3]: 1.08 L/h/kg
AUC(0-inf) (iv, 1 mg/kg/day, IV 1.0 mg/kg/day, male, Day 1, read-out: AUC0-∞ (converted)): 0.927 µg·h/mL
half-life (iv, 1 mg/kg/day, IV 1.0 mg/kg/day, male, Day 1, read-out: T1/2): 8.4 min
Vd (iv, 1 mg/kg/day, IV 1.0 mg/kg/day, male, Day 1, read-out: Vz): 0.218 L/kg
C0 [4]: 10.3 µg/mL
clearance [4]: 1.03 L/h/kg
AUC(0-inf) (iv, 1 mg/kg/day, IV 1.0 mg/kg/day, male, Day 14, read-out: AUC0-∞ (converted)): 0.967 µg·h/mL
half-life (iv, 1 mg/kg/day, IV 1.0 mg/kg/day, male, Day 14, read-out: T1/2): 7.66 min
Vd (iv, 1 mg/kg/day, IV 1.0 mg/kg/day, male, Day 14, read-out: Vz): 0.19 L/kg
C0 [5]: 30.6 µg/mL
clearance [5]: 1.04 L/h/kg
AUC(0-inf) (iv, 3 mg/kg/day, IV 3.0 mg/kg/day, female, Day 1, read-out: AUC0-∞ (converted)): 2.87 µg·h/mL
half-life (iv, 3 mg/kg/day, IV 3.0 mg/kg/day, female, Day 1, read-out: T1/2): 8 min
Vd (iv, 3 mg/kg/day, IV 3.0 mg/kg/day, female, Day 1, read-out: Vz): 0.201 L/kg
C0 [6]: 41.9 µg/mL
clearance [6]: 0.888 L/h/kg
AUC(0-inf) (iv, 3 mg/kg/day, IV 3.0 mg/kg/day, female, Day 14, read-out: AUC0-∞ (converted)): 3.38 µg·h/mL
half-life (iv, 3 mg/kg/day, IV 3.0 mg/kg/day, female, Day 14, read-out: T1/2): 6.85 min
Vd (iv, 3 mg/kg/day, IV 3.0 mg/kg/day, female, Day 14, read-out: Vz): 0.146 L/kg
C0 [7]: 23 µg/mL
clearance [7]: 1.31 L/h/kg
AUC(0-inf) (iv, 3 mg/kg/day, IV 3.0 mg/kg/day, male, Day 1, read-out: AUC0-∞ (converted)): 2.28 µg·h/mL
half-life (iv, 3 mg/kg/day, IV 3.0 mg/kg/day, male, Day 1, read-out: T1/2): 7 min
Vd (iv, 3 mg/kg/day, IV 3.0 mg/kg/day, male, Day 1, read-out: Vz): 0.221 L/kg
C0 [8]: 36.7 µg/mL
clearance [8]: 1.12 L/h/kg
AUC(0-inf) (iv, 3 mg/kg/day, IV 3.0 mg/kg/day, male, Day 14, read-out: AUC0-∞ (converted)): 2.68 µg·h/mL
half-life (iv, 3 mg/kg/day, IV 3.0 mg/kg/day, male, Day 14, read-out: T1/2): 6.67 min
Vd (iv, 3 mg/kg/day, IV 3.0 mg/kg/day, male, Day 14, read-out: Vz): 0.18 L/kg
C0 [9]: 127 µg/mL
clearance [9]: 1.04 L/h/kg
